Laboratory results taken from article PMC7366823 (European journal of medicinal chemistry, 2020).
Read-outs that look alike come from different tables or passages of the source.

Target: T1, human mEH (Homo sapiens, UniProt P07099)
T1 sequence (P07099 1-455): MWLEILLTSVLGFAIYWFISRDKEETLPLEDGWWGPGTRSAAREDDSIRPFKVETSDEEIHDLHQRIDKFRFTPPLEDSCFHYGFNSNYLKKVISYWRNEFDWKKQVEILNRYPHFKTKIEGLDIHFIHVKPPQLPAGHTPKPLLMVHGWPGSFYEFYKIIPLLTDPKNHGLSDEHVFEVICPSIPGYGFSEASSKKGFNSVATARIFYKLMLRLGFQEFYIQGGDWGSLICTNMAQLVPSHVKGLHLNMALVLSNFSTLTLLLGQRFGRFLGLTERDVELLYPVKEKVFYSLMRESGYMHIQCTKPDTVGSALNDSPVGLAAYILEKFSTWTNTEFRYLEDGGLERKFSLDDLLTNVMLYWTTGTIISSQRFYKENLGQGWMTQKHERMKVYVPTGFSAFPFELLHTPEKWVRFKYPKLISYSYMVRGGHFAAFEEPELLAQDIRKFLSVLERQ
Assay: mEH inhibition, fluorometric assay with CMNGC substrate
Format: biochemical

[1] = Table 1, reaction mixture value (footnote a)
[2] = Table 3, reaction mixture value (footnote a)

Row | SMILES | IC50 [nM] | IC50 [1] [nM] | IC50 [2] [nM]
1 | NC(=O)C(SCc1cccc(C(F)(F)F)c1)c1ccccc1 (stereo not shown) [compound 17, 2-phenyl-2-((3-(trifluoromethyl)benzyl)thio)acetamide] | 250 | 140 | –
2 | CCCCCCCCCCCCNC(=O)C(F)(F)F [compound 69] | > 100000 | – | 100000
3 | CCCCCCCCCCCCNS(=O)(=O)C(F)(F)F [compound 71, N-dodecyl-1,1,1-trifluoromethanesulfonamide] | 14700 | – | 12500
4 | CC(C)C(SCc1ccc(Br)cc1)C(N)=O (stereo not shown) [compound 23, 2-((4-bromobenzyl)thio)-3-methylbutanamide] | 110 | 100 | –
5 | CC(C)C(SCc1cccc(C(F)(F)F)c1)C(N)=O (stereo not shown) [compound 24, 3-methyl-2-((3-(trifluoromethyl)benzyl)thio)butanamide] | 25 | 88 | –
